Source: ChEMBL document CHEMBL1201862, “PubChem BioAssay data set” (2004)
Activity calls are given as the source filed them.

Experiments:
Kallikrein-7 = Kallikrein-7 (Homo sapiens, UniProt P49862); assay: Fluorescence Intensity-based biochemical primary high throughput dose response assay to identify activators of kallikrein-7 (K7) zymogen.
[1] = system: Streptococcus sp. 'group A'; assay: Streptococcus pyogenes SK(-)GAS viability under kanamycin – luminescence, BacTiterGlo, confirmation, counter-screen for streptokinase expression inhibitor project, dose response (AID 1900); format: functional, organism-based
cells [2] = format: functional, cell-based
cells [3] = format: functional, cell-based; remark: listed apart in the source
Streptococcus = assay: GAS UMAA2166 growth inhibition – luminescence, BacTiterGlo, counter-screen for streptokinase expression inhibitor project, dose response (AID 1915); format: functional, organism-based;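 note: potency for reduction of bacterial viability or growth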
INS1 = assay: INS-1E survival protection against cytokine death – cell-based, luminescence, retest, dose response (AID 449756); format: functional; settings: Rattus norvegicus;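 note: cell death triggered by IL-1 beta plus TNF-alpha plus IFN-gamma mixture; protective hits raise ATP signal compared with cytokine alone wells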
[4] = HGIII-sPLA2 enzyme inhibition potency – biochemical, QFRET, IC50, dose response (AID 743457);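 note: green fluorescence rise as the enzyme cleaves BODIPY PC-A2 in liposomes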
Paired box protein Pax-8 = Paired box protein Pax-8 (Homo sapiens, UniProt Q06710); assay: PAX8 transcriptional activity inhibition in RMG-I – RMG-I cells, luciferase, cherry-pick, dose response (AID 687027); format: functional, cell-based;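 note: luciferase reporter driven by Pax8 target thyroperoxidase promoter measured by SteadyGlo luminescence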
[5] = COV362 cell viability loss – plate reader, dry powder, SA12, cytotoxicity control for PAX8 inhibitor project, dose response (AID 743144); format: functional, cell-based
[6] = OVCAR4 cell viability loss – plate reader, dry powder, SA11, cytotoxicity control for PAX8 inhibitor project, dose response (AID 743150); format: functional, cell-based; settings: OVCAR-4
[7] = COV434 cell viability loss – plate reader, dry powder, SA7, cytotoxicity control for PAX8 inhibitor project, dose response (AID 743145); format: functional, cell-based
[8] = OV-90 cell viability loss – plate reader, dry powder, SA8, PAX8 inhibitor project, dose response (AID 743149); format: functional, cell-based
[9] = molecular target: Endoplasmic reticulum aminopeptidase 1 (Homo sapiens, UniProt Q9NZ08); assay: inhibition of human ERAP1 enzyme activity – biochemical, cherry-pick, set 2, plate reader, dose response (AID 743314)
[10] = molecular target: Tyrosyl-DNA phosphodiesterase 2 (Homo sapiens, UniProt O95551); assay: potency against TDP2 phosphodiesterase activity – biochemical, epi absorbance, IC50, dose response (AID 743297)
[11] = toxicity toward immortalized ovarian surface epithelium – cell-based, plate reader, dry powder samples, cytotoxicity control for PAX8 inhibitor project, dose response (AID 743045); format: functional
[12] = A2780 cell killing – plate reader, dry powder samples, cytotoxicity control, dose response (AID 743046); format: functional, cell-based
[13] = CMV-driven luciferase expression suppression in HEK293 – cell-based, luminescence, dry powder, counter-screen for Pax8 inhibitor project, dose response (AID 743020); format: functional
[14] = OVCAR-3 cell viability loss – plate reader, dry powder samples, PAX8 inhibitor project, dose response (AID 743044); format: functional, cell-based
[15] = IGROV1 cell killing – plate reader, dry powder samples, PAX8 inhibitor project, dose response (AID 743043); format: functional, cell-based; settings: IGROV-1
[16] = general cell-killing toxicity readout – plate reader, dry powder samples, cytotoxicity control for PAX8 inhibitor project, dose response (AID 743021); format: functional, cell-based
[17] = OVCAR8 cell viability loss – plate reader, dry powder samples, PAX8 project, dose response (AID 743197); format: functional, cell-based; settings: OVCAR-8
[18] = molecular target: Luciferin 4-monooxygenase (Photinus pyralis, UniProt P08659); assay: inhibition of purified Photinus pyralis luciferase – biochemical, luminescence, dose response (AID 1891)
[19] = Luminescence Cell-Based Dose Confirmation HTS to Identify Inhibitors of Platelet Dense Granule Release. [Related pubchem assays: 1663 (Primary HTS), 1678 (Summary of Project)]; format: functional
Caspase-3 = molecular target: T1, Caspase-3 (Homo sapiens, UniProt P42574); format: functional;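 note: Dose-response selectivity test against caspase-3 for candidate inhibitors of sentrin-specific proteases (SENPs)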
T1 sequence (P42574 whole entry): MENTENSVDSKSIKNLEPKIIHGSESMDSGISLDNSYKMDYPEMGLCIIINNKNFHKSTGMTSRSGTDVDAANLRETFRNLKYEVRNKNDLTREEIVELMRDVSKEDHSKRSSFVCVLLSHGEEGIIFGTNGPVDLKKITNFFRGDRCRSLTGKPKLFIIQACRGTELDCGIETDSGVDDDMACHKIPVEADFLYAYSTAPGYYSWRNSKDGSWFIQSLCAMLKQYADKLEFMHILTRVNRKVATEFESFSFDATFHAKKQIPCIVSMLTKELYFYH

[20] = molecular target: T2, Sentrin-specific protease 7 (Homo sapiens, UniProt Q9BQF6); format: functional;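 note: Luminescence-based dose-response confirmation of ultra-high-throughput screening hits, measuring inhibition of SENP7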
T2 sequence (Q9BQF6 whole entry): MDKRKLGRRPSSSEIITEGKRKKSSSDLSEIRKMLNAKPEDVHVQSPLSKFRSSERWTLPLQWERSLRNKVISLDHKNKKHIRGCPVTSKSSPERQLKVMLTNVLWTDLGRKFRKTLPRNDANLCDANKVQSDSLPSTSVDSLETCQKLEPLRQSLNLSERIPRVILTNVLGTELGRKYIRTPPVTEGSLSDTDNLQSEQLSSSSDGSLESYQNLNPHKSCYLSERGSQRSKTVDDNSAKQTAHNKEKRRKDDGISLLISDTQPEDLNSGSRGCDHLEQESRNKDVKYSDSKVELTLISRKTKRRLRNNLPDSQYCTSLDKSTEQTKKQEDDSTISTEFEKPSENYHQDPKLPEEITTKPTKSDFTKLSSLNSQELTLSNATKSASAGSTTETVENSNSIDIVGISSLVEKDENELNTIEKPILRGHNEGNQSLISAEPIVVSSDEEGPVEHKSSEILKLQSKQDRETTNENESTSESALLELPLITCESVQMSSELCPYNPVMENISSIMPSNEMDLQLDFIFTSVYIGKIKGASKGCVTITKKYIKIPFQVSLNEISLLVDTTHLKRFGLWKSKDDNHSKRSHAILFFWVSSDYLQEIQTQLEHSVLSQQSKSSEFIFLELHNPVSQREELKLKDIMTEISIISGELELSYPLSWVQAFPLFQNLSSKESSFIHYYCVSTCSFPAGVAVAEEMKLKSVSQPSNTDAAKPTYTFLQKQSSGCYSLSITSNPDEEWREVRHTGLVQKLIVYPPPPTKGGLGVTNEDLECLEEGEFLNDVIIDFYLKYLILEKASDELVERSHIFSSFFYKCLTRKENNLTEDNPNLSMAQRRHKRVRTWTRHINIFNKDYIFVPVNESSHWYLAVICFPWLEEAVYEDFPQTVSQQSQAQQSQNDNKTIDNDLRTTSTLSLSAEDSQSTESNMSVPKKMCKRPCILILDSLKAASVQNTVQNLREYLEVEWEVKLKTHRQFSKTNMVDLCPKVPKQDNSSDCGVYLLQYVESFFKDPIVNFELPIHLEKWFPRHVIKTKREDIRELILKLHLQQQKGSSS

[21] = molecular target: T3, Sentrin-specific protease 6 (Homo sapiens, UniProt Q9GZR1); format: functional;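 note: Luminescence-based dose-response confirmatory assay of SENP6 inhibition, following up an ultra-high-throughput screen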
T3 sequence (Q9GZR1 whole entry): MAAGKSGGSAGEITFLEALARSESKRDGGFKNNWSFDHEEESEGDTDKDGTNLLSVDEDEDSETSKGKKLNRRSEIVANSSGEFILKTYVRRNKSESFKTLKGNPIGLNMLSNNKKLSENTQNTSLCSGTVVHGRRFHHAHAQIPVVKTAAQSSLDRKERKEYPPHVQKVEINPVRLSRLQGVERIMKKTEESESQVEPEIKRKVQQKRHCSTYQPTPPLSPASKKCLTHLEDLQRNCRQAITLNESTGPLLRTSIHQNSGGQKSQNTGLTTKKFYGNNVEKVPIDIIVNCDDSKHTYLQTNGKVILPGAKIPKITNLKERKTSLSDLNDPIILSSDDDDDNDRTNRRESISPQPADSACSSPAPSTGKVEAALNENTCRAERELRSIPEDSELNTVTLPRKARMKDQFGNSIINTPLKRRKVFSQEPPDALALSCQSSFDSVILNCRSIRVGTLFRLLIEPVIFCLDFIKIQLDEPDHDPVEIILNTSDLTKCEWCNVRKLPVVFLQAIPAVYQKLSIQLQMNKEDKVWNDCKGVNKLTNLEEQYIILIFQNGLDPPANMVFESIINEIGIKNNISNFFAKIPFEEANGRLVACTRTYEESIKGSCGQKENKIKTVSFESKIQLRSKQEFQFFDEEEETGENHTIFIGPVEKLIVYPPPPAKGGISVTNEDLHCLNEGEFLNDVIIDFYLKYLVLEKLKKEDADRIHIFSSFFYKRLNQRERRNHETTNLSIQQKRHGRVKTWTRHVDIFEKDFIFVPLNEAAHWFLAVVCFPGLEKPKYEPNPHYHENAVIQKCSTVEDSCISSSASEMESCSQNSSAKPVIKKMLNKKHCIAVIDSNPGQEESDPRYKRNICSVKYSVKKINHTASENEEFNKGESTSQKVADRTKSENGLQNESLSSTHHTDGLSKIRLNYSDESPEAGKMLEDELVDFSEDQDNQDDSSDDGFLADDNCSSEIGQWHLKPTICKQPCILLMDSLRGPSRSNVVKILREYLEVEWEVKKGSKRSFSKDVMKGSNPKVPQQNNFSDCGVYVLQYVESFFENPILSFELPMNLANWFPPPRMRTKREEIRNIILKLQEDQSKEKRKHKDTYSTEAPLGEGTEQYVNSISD

[22] = molecular target: T4, Sentrin-specific protease 8 (Homo sapiens, UniProt Q96LD8); format: functional;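 note: luminescence read-out of SENP8 inhibition, dose-response confirmation following an ultra-high-throughput screen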
T4 sequence (Q96LD8 whole entry): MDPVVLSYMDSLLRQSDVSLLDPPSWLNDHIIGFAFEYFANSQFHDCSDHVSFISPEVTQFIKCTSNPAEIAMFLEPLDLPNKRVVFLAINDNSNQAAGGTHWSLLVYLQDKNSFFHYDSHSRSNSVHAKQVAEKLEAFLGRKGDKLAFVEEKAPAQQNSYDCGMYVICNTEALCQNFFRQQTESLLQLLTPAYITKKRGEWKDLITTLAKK

[23] = molecular target: T5, Probable nicotinate-nucleotide adenylyltransferase (Staphylococcus aureus (strain N315), UniProt P65502); format: functional, Staphylococcus aureus subsp. aureus N315;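 for IC50 Mean: confirmatory dose-response retesting of NadD inhibitor hits first found in an ultra-high-throughput screen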
[24] = molecular target: T5, Probable nicotinate-nucleotide adenylyltransferase; format: functional, Staphylococcus aureus subsp. aureus N315; settings: read-out: IC50_Mean
[25] = general mammalian cell viability loss – inhibitor set, cherry-pick, set 2, cytotoxicity control for miR-122 modulator project, dose response (AID 720697); format: functional, cell-based

T5 sequence (P65502 whole entry): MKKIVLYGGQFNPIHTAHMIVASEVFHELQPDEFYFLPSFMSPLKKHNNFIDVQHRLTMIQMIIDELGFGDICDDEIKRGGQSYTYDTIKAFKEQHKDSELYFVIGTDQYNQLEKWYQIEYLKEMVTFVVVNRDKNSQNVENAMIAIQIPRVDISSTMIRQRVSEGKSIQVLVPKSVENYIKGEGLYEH
Endoplasmic reticulum aminopeptidase 1, sequence (Q9NZ08 whole entry): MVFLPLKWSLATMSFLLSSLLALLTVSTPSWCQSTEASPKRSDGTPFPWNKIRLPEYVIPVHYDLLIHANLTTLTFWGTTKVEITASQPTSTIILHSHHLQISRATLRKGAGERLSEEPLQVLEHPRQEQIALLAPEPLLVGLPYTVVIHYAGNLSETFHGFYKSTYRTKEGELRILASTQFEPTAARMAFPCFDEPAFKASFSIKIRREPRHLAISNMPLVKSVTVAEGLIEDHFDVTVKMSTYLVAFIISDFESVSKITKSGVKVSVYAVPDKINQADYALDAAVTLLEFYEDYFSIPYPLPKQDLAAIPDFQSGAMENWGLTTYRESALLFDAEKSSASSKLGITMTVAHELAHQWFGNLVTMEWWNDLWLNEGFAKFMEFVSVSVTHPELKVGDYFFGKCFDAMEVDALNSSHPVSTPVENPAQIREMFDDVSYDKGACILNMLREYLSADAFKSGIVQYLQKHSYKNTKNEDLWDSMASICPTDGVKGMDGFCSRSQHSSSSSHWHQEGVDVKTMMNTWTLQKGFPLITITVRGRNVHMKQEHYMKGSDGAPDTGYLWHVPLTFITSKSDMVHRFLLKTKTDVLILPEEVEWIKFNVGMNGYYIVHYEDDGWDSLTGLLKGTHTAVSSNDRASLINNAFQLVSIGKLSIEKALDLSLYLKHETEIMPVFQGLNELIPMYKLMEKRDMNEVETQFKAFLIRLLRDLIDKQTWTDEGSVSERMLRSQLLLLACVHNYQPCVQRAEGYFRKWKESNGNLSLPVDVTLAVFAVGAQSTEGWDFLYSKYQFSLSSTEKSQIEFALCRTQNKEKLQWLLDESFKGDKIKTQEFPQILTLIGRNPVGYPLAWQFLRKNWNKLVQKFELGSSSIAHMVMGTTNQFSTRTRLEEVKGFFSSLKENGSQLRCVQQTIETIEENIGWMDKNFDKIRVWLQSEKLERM
Paired box protein Pax-8, sequence (Q06710 whole entry): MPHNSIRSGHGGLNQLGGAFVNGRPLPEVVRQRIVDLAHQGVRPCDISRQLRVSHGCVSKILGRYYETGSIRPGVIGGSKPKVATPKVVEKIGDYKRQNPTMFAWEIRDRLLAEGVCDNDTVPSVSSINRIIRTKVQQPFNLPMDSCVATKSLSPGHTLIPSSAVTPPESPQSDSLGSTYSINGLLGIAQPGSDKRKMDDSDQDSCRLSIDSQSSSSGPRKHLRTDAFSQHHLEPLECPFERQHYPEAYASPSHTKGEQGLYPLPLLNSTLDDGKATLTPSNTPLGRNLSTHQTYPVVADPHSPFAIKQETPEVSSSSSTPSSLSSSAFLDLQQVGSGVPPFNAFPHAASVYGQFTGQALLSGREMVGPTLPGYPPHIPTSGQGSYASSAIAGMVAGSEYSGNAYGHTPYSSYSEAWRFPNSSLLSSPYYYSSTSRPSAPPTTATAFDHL
Kallikrein-7, sequence (P49862 whole entry): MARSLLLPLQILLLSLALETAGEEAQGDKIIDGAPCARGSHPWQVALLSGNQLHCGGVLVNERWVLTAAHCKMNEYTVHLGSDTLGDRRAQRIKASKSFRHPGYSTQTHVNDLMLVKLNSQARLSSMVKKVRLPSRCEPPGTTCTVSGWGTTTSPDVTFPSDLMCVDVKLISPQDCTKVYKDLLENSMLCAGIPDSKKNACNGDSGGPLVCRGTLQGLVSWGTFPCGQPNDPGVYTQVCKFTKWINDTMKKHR
Luciferin 4-monooxygenase, sequence (P08659 whole entry): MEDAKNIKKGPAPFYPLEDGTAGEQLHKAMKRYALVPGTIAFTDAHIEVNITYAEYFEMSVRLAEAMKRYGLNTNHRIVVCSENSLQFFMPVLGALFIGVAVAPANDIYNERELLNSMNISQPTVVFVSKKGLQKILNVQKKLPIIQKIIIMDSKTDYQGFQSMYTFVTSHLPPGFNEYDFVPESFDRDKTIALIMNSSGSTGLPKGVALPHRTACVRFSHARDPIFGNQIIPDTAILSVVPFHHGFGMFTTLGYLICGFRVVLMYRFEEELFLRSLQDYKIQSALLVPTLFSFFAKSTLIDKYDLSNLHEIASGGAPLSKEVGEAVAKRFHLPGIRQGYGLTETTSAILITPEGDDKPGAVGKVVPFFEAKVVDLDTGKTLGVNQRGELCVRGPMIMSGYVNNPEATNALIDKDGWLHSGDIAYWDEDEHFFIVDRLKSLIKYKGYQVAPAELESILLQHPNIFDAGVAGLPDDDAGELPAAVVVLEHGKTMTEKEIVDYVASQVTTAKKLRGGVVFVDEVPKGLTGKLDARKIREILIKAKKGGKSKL
Tyrosyl-DNA phosphodiesterase 2, sequence (O95551 whole entry): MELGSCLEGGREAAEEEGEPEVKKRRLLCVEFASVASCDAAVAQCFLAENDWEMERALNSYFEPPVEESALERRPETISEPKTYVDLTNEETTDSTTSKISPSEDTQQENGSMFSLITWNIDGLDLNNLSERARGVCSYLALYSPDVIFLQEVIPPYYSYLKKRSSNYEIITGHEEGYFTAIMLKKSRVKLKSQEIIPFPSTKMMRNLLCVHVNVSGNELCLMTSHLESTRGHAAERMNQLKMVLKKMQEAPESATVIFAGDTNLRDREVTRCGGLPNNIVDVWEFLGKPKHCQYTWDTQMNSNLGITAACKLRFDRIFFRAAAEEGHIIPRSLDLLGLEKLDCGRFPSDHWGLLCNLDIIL

Which EC50 (Kallikrein-7) does the source give for `COc1cc2ccccc2cc1C(=O)OCC(=O)N1CCOCC1` here?
Its EC50 is > 69.5 µM (inactive).

With `Cc1ccn2c(Nc3ccccc3C)c(-c3ccccn3)nc2c1` as the molecule, how does the EC50 [1] read?
Its EC50 is 2.75 µM (active).

What about the EC50 (cells [2]) of the same molecule?
The EC50 was 146 µM (active).

What about the EC50 (cells [3]) of the same molecule?
Its EC50 is > 350 µM (not active).

And the EC50 (Streptococcus)?
The EC50 was 6.24 µM (active).

And the AC50 (INS1)?
Its AC50 is 5.32 µM (active).

And the IC50 [4]?
Its IC50 is 67.9 µM (inactive).

For `Cc1cccc(N=C(S)NNC(=O)c2ccc(O)cc2O)c1C`, which IC50 [4] is on record?
The IC50 was > 122 µM (inactive).

With `CN1CC(=O)N2C(c3ccc(Cl)cc3)c3[nH]c4ccccc4c3C[C@H]2C1=O` (stereo partly drawn) as the molecule, how does the AC50 (Paired box protein Pax-8) read?
The AC50 was 10.3 µM (active).

And the AC50 [5]?
Its AC50 is 9.73 µM (active).

What about the AC50 [6] of the same molecule?
Its AC50 is 10.3 µM (active).

What about the AC50 [7] of the same molecule?
The AC50 was 21.4 µM (active).

What about the AC50 [8] of the same molecule?
Its AC50 is > 100 µM (inactive).

Which AC50 [9] does the source give for `Cc1cc(=O)oc2c(CN3CCCC3)c(O)c(Cl)cc12` here?
Its AC50 is 5.76 µM (active).

For `Nc1c2c(O)nc(O)cc2nn1-c1ccccc1`, which IC50 [10] is on record?
The IC50 was 79.9 µM (inactive).

What does the source list for `C[C@@H]1CN([C@H](C)CO)C(=O)c2cc(NS(=O)(=O)c3ccc(Cl)cc3)ccc2O[C@@H](C)CCCCO[C@H]1CN(C)Cc1ccc(C(F)(F)F)cc1`?
AC50 (Paired box protein Pax-8): 6.62 µM (active); AC50 [11]: 20.2 µM (active); AC50 [12]: 10.8 µM (active); AC50 [13]: 31.8 µM (active); AC50 [14]: 10.6 µM (active); AC50 [15]: 21.3 µM (active); AC50 [16]: 3.68 µM (active); AC50 [17]: 21.6 µM (active)

With `CCC(=O)N(C)C[C@H]1Oc2ncc(C#Cc3ccncc3)cc2C(=O)N([C@H](C)CO)C[C@H]1C` as the molecule, how does the AC50 [9] read?
The AC50 was 2.92 µM (active).

With `COc1cccc(OCc2cc(/C=N/Nc3ccc(C(=O)O)cc3)ccc2OC)c1` as the molecule, how does the EC50 [18] read?
Its EC50 is 4.64 µM (active).

What about the EC50 [19] of the same molecule?
Its EC50 is 84.7 µM (active).

What about the IC50 (Caspase-3) of the same molecule?
Its IC50 is 22.4 µM (active).

And the IC50 [20]?
The IC50 was 8.85 µM (active).

And the IC50 [21]?
The IC50 was 6.91 µM (active).

And the IC50 [22]?
Its IC50 is 15.7 µM (active).

What about the IC50 [23] of the same molecule?
The IC50 was 7.37 µM (active).

And the IC50 [24]?
Its IC50 is 25.5 µM (active).

What about the AC50 [25] of the same molecule?
The AC50 was 7.48 µM (active).
